{"source": "ChEMBL document CHEMBL4190178", "about": "(Medchemcomm, 2016)", "key": {"[1]": {"system": "LNCaP", "experiment": "Cytotoxicity against human LNCAP cells assessed as reduction in cell viability after 24 hrs by MTT assay", "assay_type": "functional, cell-based"}, "[2]": {"molecular_target": "T1, Androgen receptor (Homo sapiens) (UniProt P10275)", "T1 sequence (whole entry)": "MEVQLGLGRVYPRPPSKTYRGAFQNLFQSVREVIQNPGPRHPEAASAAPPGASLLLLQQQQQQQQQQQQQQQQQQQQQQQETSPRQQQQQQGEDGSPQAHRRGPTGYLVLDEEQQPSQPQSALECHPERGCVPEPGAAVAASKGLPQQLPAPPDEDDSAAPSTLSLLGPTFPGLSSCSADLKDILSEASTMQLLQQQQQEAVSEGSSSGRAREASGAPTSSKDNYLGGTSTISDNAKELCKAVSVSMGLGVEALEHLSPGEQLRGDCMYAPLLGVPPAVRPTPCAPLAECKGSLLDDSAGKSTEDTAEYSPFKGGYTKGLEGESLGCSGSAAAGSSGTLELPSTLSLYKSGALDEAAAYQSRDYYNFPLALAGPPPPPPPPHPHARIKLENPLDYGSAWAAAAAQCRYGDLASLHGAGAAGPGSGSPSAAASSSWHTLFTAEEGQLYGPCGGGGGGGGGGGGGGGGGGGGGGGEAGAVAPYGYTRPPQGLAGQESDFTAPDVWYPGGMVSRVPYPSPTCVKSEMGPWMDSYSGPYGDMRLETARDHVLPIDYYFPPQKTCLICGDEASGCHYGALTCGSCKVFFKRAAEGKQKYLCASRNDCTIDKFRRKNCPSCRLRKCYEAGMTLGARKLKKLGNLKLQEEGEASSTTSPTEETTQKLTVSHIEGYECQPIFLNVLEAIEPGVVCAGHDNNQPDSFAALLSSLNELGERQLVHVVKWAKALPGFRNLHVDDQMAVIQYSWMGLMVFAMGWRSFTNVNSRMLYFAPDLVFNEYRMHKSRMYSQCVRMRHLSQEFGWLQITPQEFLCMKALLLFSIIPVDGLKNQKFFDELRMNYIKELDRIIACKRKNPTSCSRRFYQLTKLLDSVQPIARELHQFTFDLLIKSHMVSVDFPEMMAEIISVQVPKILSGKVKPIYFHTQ", "experiment": "Antagonist activity at human androgen receptor expressed in African green monkey COS7 cells at 7.5 uM after 24 hrs by ARE-dual luciferase reporter gene assay", "assay_type": "cell-based"}, "[3]": {"system": "DU-145", "experiment": "Antiproliferative activity against human DU145 cells assessed as decrease in cell viability after 24 hrs by MTT assay", "assay_type": "functional, cell-based", "conditions": "DU-145, 24 h"}, "[4]": {"system": "Rattus norvegicus", "experiment": "(§1) Anti-androgenic activity in citral-induced benign prostatic hyperplasia Sprague-Dawley rat model assessed as reduction in tissue differentiation into acinar compartments at 10 mg/kg, po qd co-administered with citral for 21 days starting post 8 days of citral alone treatment by hematoxyline and eosin staining based light microscopic analysis", "assay_type": "functional, organism-based"}, "[5]": {"system": "Rattus norvegicus", "experiment": "as §1, with “stroma” for “acinar compartments”", "assay_type": "functional, organism-based"}, "[6]": {"system": "Rattus norvegicus", "experiment": "Toxicity in benign prostatic hyperplasia Sprague-Dawley rat model assessed as effect on epididymis weight at 10 mg/kg, po qd co-administered with citral for 21 days starting post 8 days of citral alone treatment", "assay_type": "organism-based", "conditions": "in vivo"}, "[7]": {"system": "Rattus norvegicus", "experiment": "Toxicity in benign prostatic hyperplasia Sprague-Dawley rat model assessed as effect on testis weight at 10 mg/kg, po qd co-administered with citral for 21 days starting post 8 days of citral alone treatment", "assay_type": "organism-based", "conditions": "in vivo"}, "[8]": {"system": "Rattus norvegicus", "experiment": "Anti-androgenic activity in benign prostatic hyperplasia Sprague-Dawley rat model assessed as reduction in citral-induced prostate weight at 10 mg/kg, po qd co-administered with citral for 21 days starting post 8 days of citral alone treatment", "assay_type": "functional", "parameters": "scale not given: the % may be the effect or the level left"}, "[9]": {"system": "Rattus norvegicus", "experiment": "as §1, with “stromal component” for “tissue differentiation into acinar compartments”", "assay_type": "functional, organism-based"}, "[10]": {"system": "Rattus norvegicus", "experiment": "Toxicity in benign prostatic hyperplasia Sprague-Dawley rat model assessed as effect on seminal vesicle weight at 10 mg/kg, po qd co-administered with citral for 21 days starting post 8 days of citral alone treatment", "assay_type": "organism-based", "conditions": "in vivo"}, "[11]": {"system": "LNCaP", "experiment": "Antiproliferative activity against human LNCAP cells assessed as decrease in cell viability after 24 hrs by MTT assay", "assay_type": "functional, cell-based"}, "[12]": {"system": "PC-3", "experiment": "Antiproliferative activity against human PC3 cells assessed as decrease in cell viability after 24 hrs by MTT assay", "assay_type": "functional, cell-based", "conditions": "PC-3, 24 h"}, "[13]": {"molecular_target": "T1, Androgen receptor (Homo sapiens)", "experiment": "Antagonist activity at androgen receptor in human LNCAP cells assessed as decrease in testosterone-induced PSA expression levels at 10 uM after 24 hrs by Western blot analysis", "assay_type": "cell-based"}, "[14]": {"molecular_target": "T2, Alpha-1A adrenergic receptor (Homo sapiens) (UniProt P35348)", "T2 sequence (whole entry)": "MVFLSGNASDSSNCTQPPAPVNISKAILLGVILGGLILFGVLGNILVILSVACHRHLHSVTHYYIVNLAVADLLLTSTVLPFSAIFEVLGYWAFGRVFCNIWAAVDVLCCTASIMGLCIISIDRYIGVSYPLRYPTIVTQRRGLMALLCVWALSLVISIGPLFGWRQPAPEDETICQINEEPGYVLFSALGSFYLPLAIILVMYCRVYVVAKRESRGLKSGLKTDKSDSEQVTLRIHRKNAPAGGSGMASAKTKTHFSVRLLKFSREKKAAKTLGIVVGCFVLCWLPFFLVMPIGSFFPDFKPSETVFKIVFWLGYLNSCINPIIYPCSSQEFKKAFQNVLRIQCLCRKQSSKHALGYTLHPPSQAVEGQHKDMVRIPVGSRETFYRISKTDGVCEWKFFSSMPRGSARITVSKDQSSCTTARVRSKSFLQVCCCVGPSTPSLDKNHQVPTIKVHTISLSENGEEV", "experiment": "Antagonist activity at human alpha1A adrenergic receptor expressed in Chem1 cells assessed as decrease in epinephrine-induced calcium mobilization by measuring relative fluorescence unit at 10 uM by fluoforte dye based fluorescence assay relative to epinephrine", "assay_type": "functional, cell-based"}, "[15]": {"molecular_target": "T2, Alpha-1A adrenergic receptor (Homo sapiens)", "experiment": "Antagonist activity at human alpha1A adrenergic receptor expressed in Chem1 cells assessed as decrease in epinephrine-induced calcium mobilization by measuring relative fluorescence unit at 1 uM by fluoforte dye based fluorescence assay relative to epinephrine", "assay_type": "functional, cell-based"}}, "note": "pEC50: −log10 of the molar value. Calls of active or inactive are those of the source. The rule behind the calls is not given here.", "data": [{"smiles": "COc1ccccc1N1CCN(C(=O)CN2CCN(c3ccccn3)CC2)CC1", "values": [{"measurement": "pEC50", "setting": "[1]", "value": 4.34}]}, {"smiles": "O=C(N1CCN(c2ccc([N+](=O)[O-])cc2)CC1)N1CCN(c2ccc(C(F)(F)F)cc2[N+](=O)[O-])CC1", "values": [{"measurement": "pEC50", "setting": "[1]", "value": "< 4.10"}]}, {"smiles": "COc1ccccc1N1CCN(C(=O)CN2CCN(c3ccc([N+](=O)[O-])cc3)CC2)CC1", "values": [{"measurement": "pEC50", "setting": "[1]", "value": 4.20}]}, {"smiles": "O=C(CCl)N1CCN(c2ccc([N+](=O)[O-])cc2)CC1", "values": [{"measurement": "Activity", "setting": "[2]", "value": "Active"}, {"measurement": "pEC50", "setting": "[3]", "value": "< 4.15"}, {"measurement": "Activity", "setting": "[4]", "value": "Active"}, {"measurement": "Activity", "setting": "[5]", "value": "Active"}, {"measurement": "Activity", "setting": "[6]", "value": "Non-Toxic"}, {"measurement": "pEC50", "setting": "[1]", "value": 5.01}, {"measurement": "Activity", "setting": "[7]", "value": "Non-Toxic"}, {"measurement": "Activity", "setting": "[8]", "value": "31.6 - 32%"}, {"measurement": "Activity", "setting": "[9]", "value": "Active"}, {"measurement": "Activity", "setting": "[10]", "value": "Non-Toxic"}, {"measurement": "pEC50", "setting": "[11]", "value": 5.01}, {"measurement": "pEC50", "setting": "[12]", "value": 4.19}, {"measurement": "Activity", "setting": "[13]", "value": "Active"}, {"measurement": "fold change (FC)", "setting": "[14]", "value": 1.6}]}, {"smiles": "CCOc1ccccc1OCCN[C@H](C)Cc1ccc(OC)c(S(N)(=O)=O)c1", "values": [{"measurement": "fold change (FC)", "setting": "[15]", "value": 1.6}]}, {"smiles": "O=C(N1CCN(c2ccc([N+](=O)[O-])c(C(F)(F)F)c2)CC1)N1CCN(c2ccccn2)CC1", "values": [{"measurement": "pEC50", "setting": "[1]", "value": 4.10}]}, {"smiles": "O=C(N1CCN(c2ccc([N+](=O)[O-])cc2)CC1)N1CCN(c2ccc([N+](=O)[O-])cc2)CC1", "values": [{"measurement": "pEC50", "setting": "[1]", "value": 4.14}]}, {"smiles": "O=C(N1CCN(c2ccccn2)CC1)N1CCN(c2ccc([N+](=O)[O-])cc2C(F)(F)F)CC1", "values": [{"measurement": "pEC50", "setting": "[1]", "value": "< 4.10"}]}, {"smiles": "COc1ccccc1N1CCN(CC(=O)N2CCN(c3ccccc3OC)CC2)CC1", "values": [{"measurement": "pEC50", "setting": "[1]", "value": 4.28}]}, {"smiles": "O=C(CN1CCN(c2ncccn2)CC1)N1CCN(c2ccc([N+](=O)[O-])cc2)CC1", "values": [{"measurement": "pEC50", "setting": "[1]", "value": 4.29}]}, {"smiles": "O=C(N1CCN(c2ccccn2)CC1)N1CCN(c2ccccn2)CC1", "values": [{"measurement": "pEC50", "setting": "[1]", "value": "< 4.10"}]}, {"smiles": "O=C(N1CCN(c2ccc([N+](=O)[O-])cc2)CC1)N1CCN(c2ccccn2)CC1", "values": [{"measurement": "pEC50", "setting": "[1]", "value": 4.16}]}, {"smiles": "O=C(CCl)N1CCN(c2ncccn2)CC1", "values": [{"measurement": "pEC50", "setting": "[1]", "value": 4.15}]}, {"smiles": "O=C(CN1CCN(c2ccccn2)CC1)N1CCN(c2ncccn2)CC1", "values": [{"measurement": "pEC50", "setting": "[1]", "value": 4.30}]}]}
